# Laboratory results: PubChem BioAssay (NCI)
# “And” between values parts separate entries of the source, which are not always exact repeats. Equal values may be shown once.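 1) Cells in 96-well plates. 2) Compound, 48 h, 5 concentrations. 3) Linear interpolation between surrounding doses. 4) Unreached endpoint = highest concentration. The concentration for 50% growth inhibition is given as GI50. TGI denotes the concentration required for complete inhibition of growth.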
# Experiments:
# Assay in all cases: DTP human tumour cell line panel, 48 h
# [1] = system: HOP-92 NSCLC
# [2] = system: SK-OV-3 ovarian
# [3] = system: NCI-H460 lung
# [4] = system: UACC-257 melanoma
# [5] = system: A549 NSCLC
# [6] = system: UO-31 renal
# [7] = system: NCI/ADR-RES ovarian
# [8] = system: 786-0 renal
# [9] = system: MALME-3M melanoma
# [10] = system: EKVX NSCLC
Structure (SMILES),GI50 [1],TGI [1],GI50 [2],TGI [2],GI50 [3],TGI [3],GI50 [4],TGI [4],GI50 [5],TGI [5],GI50 [6],TGI [6],GI50 [7],TGI [7],GI50 [8],TGI [8],GI50 [9],TGI [9],TGI [10],GI50 [10]
COc1ccc(-c2nc(-c3nc4ccc(C)cc4[nH]3)cc3c2[nH]c2ccccc23)cc1,2.17 µM,8.11 µM,61 µM,> 100 µM,2.99 µM,> 100 µM,3.94 µM,> 100 µM,3.43 µM,> 100 µM,2.99 µM,> 100 µM,3.72 µM,> 100 µM,19.3 µM,> 100 µM,5.1 µM,72.5 µM,,
COCCOc1cc(C)cc(/C=C(C)/C=C/C2=C(C)CCCC2(C)C)n1,,> 100 µM,,> 100 µM,,> 100 µM,,> 100 µM,,> 100 µM,,> 100 µM,,,,> 100 µM,,> 100 µM,> 100 µM,
CN(C)CCCn1c(=O)c2ccccc2c2cnc3[nH]ccc3c21,1.8 µM,8.16 µM,1.97 µM,7.11 µM,0.8 µM,2.62 µM,2.26 µM,5.59 µM,,,,,1.25 µM,6.24 µM,0.85 µM,10.9 µM,1.69 µM,4.55 µM,8.43 µM,2.27 µM
CC1OC(=O)C(O)=C1O (stereo not given),,> 100 µM,,> 100 µM,,> 100 µM,,> 100 µM,,> 100 µM,,> 100 µM,,,,> 100 µM,,> 100 µM,> 100 µM,
O=[N+]([O-])c1ccc(Cl)c(CNc2ncnc3c2ncn3C2CCCCO2)c1 (stereo not given),,> 100 µM,,> 100 µM,,52.2 µM,,,,> 100 µM,,> 100 µM,,> 100 µM,,> 100 µM,,> 100 µM,> 100 µM,
COc1ccccc1NC(=O)C1=C(C)NC(C)=C(C(=O)Nc2ccccc2OC)C1/C=C/c1ccccc1,,> 100 µM,,> 100 µM,,> 100 µM,,> 100 µM,,> 100 µM,,> 100 µM,,,,> 100 µM,,> 100 µM,> 100 µM,
CCCOC(=O)c1c(C)n(C)c2scc[n+]12,15.1 µM,> 100 µM,49.6 µM,> 100 µM,52.8 µM,> 100 µM,40.8 µM,> 100 µM,,,> 100 µM,> 100 µM,> 100 µM,> 100 µM,80.1 µM,> 100 µM,> 100 µM,> 100 µM,> 100 µM,13.7 µM
CCOC(=O)/C(=C/c1cccc(Cl)c1)N(CC)CC,,84.2 µM,,> 100 µM,,> 100 µM,,> 100 µM,,> 100 µM,,> 100 µM,,,,> 100 µM,,> 100 µM,> 100 µM,
CCCCCCSSC(=S)N(CC)CC,32.4 µM,> 100 µM,28.6 µM,71.1 µM,,,48.3 µM,> 100 µM,32.4 µM,98.6 µM,18.1 µM,34.9 µM,28.1 µM,96.5 µM,20.4 µM,39.4 µM,23 µM,60.4 µM,> 100 µM,37.1 µM
c1ccc(OCCC[P+](c2ccccc2)(c2ccccc2)c2ccccc2)cc1,,,4.11 µM,32.4 µM,2.79 µM,13.5 µM,0.381 µM,5.71 µM,2.36 µM,20.3 µM,13.9 µM,36.6 µM,> 100 µM,> 100 µM,4.14 µM,20 µM,,,,
CCCCC#Cc1c(I)n(C)c(=O)[nH]c1=O,,,20.3 µM,34.6 µM,20.1 µM,39.7 µM,2.46 µM,5.5 µM,19.3 µM,34.9 µM,2.59 µM,10.2 µM,6.48 µM,19.5 µM,16.5 µM,30.1 µM,1.94 µM,3.55 µM,29.1 µM,15.7 µM
O=C1CSC(c2ccccc2Cl)N1c1nnc(Cn2cnnc2)o1 (stereo not given),19.3 µM,79.1 µM,14.9 µM,75.7 µM,7.91 µM,43.8 µM,,,18 µM,> 100 µM,30.8 µM,> 100 µM,6.64 µM,83.4 µM,13.8 µM,33.4 µM,6.84 µM,30.6 µM,> 100 µM,22.3 µM
Cn1cc(C2=C(c3c[nH]c4ccccc34)C(=O)NC2=O)c2ccccc21,,,1.08 µM,> 25 µM,0.732 µM,> 25 µM,,,1.66 µM,> 25 µM,0.334 µM,> 25 µM,3.33 µM,> 25 µM,0.446 µM,> 25 µM,0.143 µM,> 25 µM,,
CC(C)N(Cc1ccc(CN(C(=O)CCl)C(C)C)cc1)C(=O)CCl,1.83 µM,3.56 µM,1.83 µM,3.35 µM,1.98 µM,4.74 µM,,,2.57 µM,7.37 µM,1.76 µM,3.21 µM,2.49 µM,7.73 µM,0.351 µM,1.3 µM,0.186 µM,0.453 µM,5.63 µM,2.36 µM
CC(C)c1cccc(C(C)C)c1N1C(=O)C(=O)C(c2nc3ccccc3o2)C(=O)C1=O,,> 100 µM,,> 100 µM,,> 100 µM,,> 100 µM,,> 100 µM,,> 100 µM,,,,84.3 µM,,> 100 µM,> 100 µM,
COc1ccc(-c2ccc(/C=N/n3c(COc4ccccc4Cl)nn(CN4CCOCC4)c3=S)o2)c([N+](=O)[O-])c1,21.6 µM,52.6 µM,25.7 µM,> 100 µM,19.8 µM,49 µM,,,27.4 µM,> 100 µM,37.1 µM,> 100 µM,21.3 µM,49.2 µM,34.4 µM,> 100 µM,18 µM,44.3 µM,> 100 µM,54.9 µM
CCCCCC(O)C(O)CCC[C@H](O)[C@H]1CC[C@H]([C@H]2CC[C@H]([C@H](O)CCCCCCCCCCCCC3=C[C@H](C)OC3=O)O2)O1 (stereo not given in full),,61.7 µM,,,1.69 µM,31.7 µM,1.29 µM,8.7 µM and 18.6 µM,3.48 µM,> 100 µM,4.46 µM,5.67 µM and 20.5 µM,2.75 µM,8.99 µM and 29.1 µM,11.1 µM,30.8 µM,,29.8 µM,26.4 µM,6.94 µM
